Assays:
[1] = Dissolution test, paddle method (Example 15); type: physicochemical; conditions: for Increasing rate of dissolution rate of 12 hours: after versus before microparticulation; for Change of dissolution rate of micronized particles compared to before micronization: different time points, FIGS. 3 to 6, pH 6.8, 1.5% Tween 80, 37° C.; for Dissolution rate of 12 hours after microparticulation / Dissolution rate of 12 hours before microparticulation: paddle 75 rpm, 37° C., pH 6.8, 1.5% Tween 80; for Dissolution rate of 12 hours after microparticulation: after microparticulation (Jet mill or ball mill, no surfactant)
Description: Dissolution test was commonly carried out under the following condition.
(§1) The dissolution test was carried out according to the paddle method of Korean Phramacopeia. The paddle rate was 75 rpm, the temperature of an effluent was 37° C., and a test solution was a mixture solution of pH 6.8, 1.5% Tween 80. First, the test solution was filtered through a […] Membrane filter and centrifuged. Supernatant fluid was taken, and the content of drug was analyzed by HPLC, and the amount of released drug was measured at different time points. The drugs used for the dissolution test are Compounds 1, 5, 44 and 51 provided in Table 1, and the extract set forth in the Korean Patent No. 10-818586 which contains Compound 58 over 60 wt % (‘Compound 58 Extract’). Microparticulation was carried out using Jet mill or ball mill without any surfactant. The particle size of compounds was determined by HELOS measurement.

[2] = Particle size before and after micronization, HELOS measurement (Example 15); type: physicochemical; conditions: for Particle size X50 after micronization / Particle size X90 after micronization: after micronization by Jet mill or ball mill without surfactant
Description: as §1
Measurement of the particle size was carried out by putting approximately 3 ml of a sample into a cell for particle size measurement and measuring the particle size during 60 seconds per sample. The particle sizes before and after micronization are provided below.

[3] = Body weight change in ob/ob mice given suspensions of cryptotanshinone powder or micronized particles (Example 6); type: in vivo; conditions: ob/ob male mice; 400 mg/kg PO once a day
Description: 1 g of a simply finely-divided powder of cryptotanshinone, and 1 g of each micronized particles of cryptotanshinone compound according to the procedures of Examples 1 to 3 were mixed with 10 mL of distilled water, and the resulting mixtures were processed in a sonicator for 30 min to prepare suspensions of the cryptotanshinone compounds. 400 mg/kg of these suspensions in terms of cryptotanshinone content was administered to ob/ob mice once a day and changes in the body weight (BW) of animals were examined.
For this purpose, 10-week-old ob/ob male mice (Jackson Lab) as an obese mouse model of type 2 diabetes were purchased from Orient Co., Ltd., Korea and were allowed to acclimate to a new environment of the breeding room for 10 days prior to experiments. Animals were fed a solid feed (P5053, Labdiet) as a laboratory animal chow. The ob/ob male mice were housed and allowed to acclimate to a new environment for 10 days, in a breeding room maintained at a temperature of 22±2° C., humidity of 55±5%, and a 12-h light/dark (L/D) cycle (light from 8:00 a.m. to 8:00 p.m.). […]

[4] = Body weight change in DIO (diet-induced obesity) SD rats with varying dosages of micronized cryptotanshinone (Example 7); type: in vivo; conditions: for BW loss / Final BW: high-fat diet, Jet mill-micronized with 0.2% SLS
Description: Each of formulations composed of a mixture of Jet mill-micronized cryptotanshinone at 25 mg/kg, 50 mg/kg and 100 mg/kg with 0.2% (w/w) sodium lauryl sulfate was administered daily for 28 days to DIO (diet-induced obesity) SD rats in which obesity was caused by high-fat diet for 4 weeks. As a control, a surfactant SLS at a concentration of 0.2% was suspended in distilled water and a suspension was then administered to animals.

[5] = Particle size of micronized particles prepared in Examples 1 to 5; type: physicochemical; conditions: cryptotanshinone prior to supercritical micronization
Description: In order to develop a supercritical micronization process, 5 g of cryptotanshinone having a particle size distribution of 1 to 100 μm and an average particle size of 30 μm, and 0.5 g of sodium lauryl sulfate were dissolved in 45 mL of methylene chloride. Thereafter, the resulting solution of cryptotanshinone in methylene chloride was injected at a flow rate of 1 to 2 mL/min via a nozzle orifice with a diameter of 1/16 inch into a reaction vessel which was set to a temperature of 30° C., 80 bar, and 2,000 rpm and was filled with liquefied carbon dioxide, whereas carbon dioxide was injected at a flow rate of 10 to 20 mL/min via a nozzle orifice with a diameter of 1/16 inch using an ISCO pump.
In order to recover precipitates of small-sized particles from the liquid carbon dioxide solution as an insoluble solvent in the reaction vessel, a volume of carbon dioxide which is 15-fold that of the reaction vessel was flowed to remove the remaining organic solvent and the pressure of the reaction vessel was reduced to recover micronized particles of cryptotanshinone. […]
Micronizing of cryptotanshinone was carried out using a Jet mill (SJ-100, Nisshin, Japan). […] Micronized particles were recovered and a particle size was determined in terms of particle diameter by […]. […]

| Molecule | Increasing rate of dissolution rate of 12 hours [1] [%] | Change of dissolution rate of micronized particles compared to before micronization [1] | Dissolution rate of 12 hours after microparticulation [1] [%] | Dissolution rate of 12 hours before microparticulation [1] [%] | Particle size X50 after micronization [2] | Particle size X90 after micronization [2] | Particle size X50 before micronization [2] | Particle size X90 before micronization [2] | Final BW [3] [g] | Loss of body weight compared to the control group ([4]; 25, 50 and 100 mg/kg daily for 28 days, concentration-dependent) | BW loss ([4]; 25 mg/kg daily for 28 days) [%] | Final BW ([4]; 25 mg/kg daily for 28 days) [g] | BW loss ([4]; 50 mg/kg daily for 28 days) [%] | Final BW ([4]; 50 mg/kg daily for 28 days) [g] | BW loss ([4]; 100 mg/kg daily for 28 days) [%] | Final BW ([4]; 100 mg/kg daily for 28 days) [g] | Average particle size [5] [μm] |
| --- | --- | --- | --- | --- | --- | --- | --- | --- | --- | --- | --- | --- | --- | --- | --- | --- | --- |
| CC1(C)CCC2=C(O1)c1ccccc1C(=O)C2=O [Compound 1, 7,8-dihydro-2,2-dimethyl-2H-naphtho(2,3-b)dihydropyran-7,8-dione] | 42 | increased significantly | 95.52 | 67.19 | X50 = 2.39 μm | X90 = 5.03 μm | X50 = 27.83 μm | X90 = 33.74 μm | – | – | – | – | – | – | – | – | – |
| CC1CC2=C(O1)c1ccccc1C(=O)C2=O (stereo not drawn) [Compound 5] | 10 | increased significantly | 86.12 | 78.12 | X50 = 2.48 μm | X90 = 5.38 μm | X50 = 3.61 μm | X90 = 20.09 μm | – | – | – | – | – | – | – | – | – |
| CC1OC2=C(C(=O)C(=O)c3c2ccc2c3CCCC2)C1(C)C (stereo not drawn) [Compound 44] | – | increased significantly | 41.05 | 13.81 | X50 = 2.41 μm | X90 = 24.57 μm | X50 = 3.15 μm | X90 = 22.41 μm | – | – | – | – | – | – | – | – | – |
| Cc1cc2c(c3ccccc13)C(=O)C(=O)C1=C2OC(C)C1(C)C (stereo not drawn) [Compound 51] | – | increased significantly | 51.3 | 24.08 | X50 = 3.05 μm | X90 = 13.48 μm | X50 = 5.08 μm | X90 = 21.97 μm | – | – | – | – | – | – | – | – | – |
| C[C@H]1COC2=C1C(=O)C(=O)c1c2ccc2c1CCCC2(C)C [Simply finely-divided cryptotanshinone, cryptotanshinone] | – | – | – | – | – | – | – | – | 57.5 ± 1.3 | – | – | – | – | – | – | – | – |
| cryptotanshinone [Compound 58] | – | – | – | – | – | – | – | – | – | significant loss of body weight | 16.9 ± 3.8 | 589.0 ± 50.4 | 15.4 ± 3.7 | 578.8 ± 54.6 | 6.2 ± 5.5 | 529.8 ± 59.1 | 30 |
